What was measured:
Assay in all cases: biochemical
Set-up in all cases: KINOMEscan scanMAX active site-directed competition binding assay, percent of control, 468 kinases
Settings in all cases: competition binding, percent of control
ACVR1B = ACVR1B (Homo sapiens, UniProt P36896)
Method in brief: (§1)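 Single-concentration screen (100 μM S-carvone) in a competition binding panel of 468 human kinases (KINOMEscan scanMAX); results given as percent of control, hit cutoff 35%.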

CSNK1A1L = CSNK1A1L (Homo sapiens, UniProt Q8N752)
Method in brief: as §1

CSNK1G2 = CSNK1G2 (Homo sapiens, UniProt P78368)
Method in brief: as §1

EPHB6 = EPHB6 (Homo sapiens, UniProt O15197)
Method in brief: as §1

FGFR3 = FGFR3 (Homo sapiens, UniProt P22607)
Method in brief: as §1

FGR = FGR (Homo sapiens, UniProt P09769)
Method in brief: as §1

FLT3(D835H) = FLT3(D835H) (Homo sapiens, UniProt P36888, D835H)
Method in brief: as §1

GRK7 = GRK7 (Homo sapiens, UniProt Q8WTQ7)
Method in brief: as §1

HUNK = HUNK (Homo sapiens, UniProt P57058)
Method in brief: as §1

KIT = KIT (Homo sapiens, UniProt P10721)
Method in brief: as §1

LRRK2 = LRRK2 (Homo sapiens, UniProt Q5S007)
Method in brief: as §1

MET(Y1235D) = MET(Y1235D) (Homo sapiens, UniProt P08581, Y1235D)
Method in brief: as §1

MLK2 = target: T1, MLK2 (Homo sapiens, UniProt Q02779)
T1 construct: gene MAP3K10
Method in brief: as §1

NEK9 = NEK9 (Homo sapiens, UniProt Q8TD19)
Method in brief: as §1

SGK2 = SGK2 (Homo sapiens, UniProt Q9HBY8)
Method in brief: as §1

TIE2 = target: T2, TIE2 (Homo sapiens, UniProt Q02763)
T2 construct: gene TEK
Method in brief: as §1

TLK2 = TLK2 (Homo sapiens, UniProt Q86UE8)
Method in brief: as §1

ULK2 = ULK2 (Homo sapiens, UniProt Q8IYT8)
Method in brief: as §1

WEE1 = WEE1 (Homo sapiens, UniProt P30291)
Method in brief: as §1

WNK3 = WNK3 (Homo sapiens, UniProt Q9BYP7)
Method in brief: as §1

p38-alpha = target: T3, p38-alpha (Homo sapiens, UniProt Q16539)
T3 construct: gene MAPK14
Method in brief: as §1

p38-beta = target: T4, p38-beta (Homo sapiens, UniProt Q15759)
T4 construct: gene MAPK11
Method in brief: as §1

SGK2, sequence (Q9HBY8 whole entry): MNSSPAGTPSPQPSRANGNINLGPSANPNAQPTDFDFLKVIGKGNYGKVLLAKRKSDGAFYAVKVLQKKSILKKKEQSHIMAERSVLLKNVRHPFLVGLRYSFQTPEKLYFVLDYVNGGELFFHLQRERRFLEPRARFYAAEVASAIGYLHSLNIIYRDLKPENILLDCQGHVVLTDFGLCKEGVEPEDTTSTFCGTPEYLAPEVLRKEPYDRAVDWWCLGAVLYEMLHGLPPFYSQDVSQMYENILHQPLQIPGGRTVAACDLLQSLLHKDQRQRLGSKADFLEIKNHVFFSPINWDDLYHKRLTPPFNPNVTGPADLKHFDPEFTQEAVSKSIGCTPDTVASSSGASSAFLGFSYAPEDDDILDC
KIT, sequence (P10721 whole entry): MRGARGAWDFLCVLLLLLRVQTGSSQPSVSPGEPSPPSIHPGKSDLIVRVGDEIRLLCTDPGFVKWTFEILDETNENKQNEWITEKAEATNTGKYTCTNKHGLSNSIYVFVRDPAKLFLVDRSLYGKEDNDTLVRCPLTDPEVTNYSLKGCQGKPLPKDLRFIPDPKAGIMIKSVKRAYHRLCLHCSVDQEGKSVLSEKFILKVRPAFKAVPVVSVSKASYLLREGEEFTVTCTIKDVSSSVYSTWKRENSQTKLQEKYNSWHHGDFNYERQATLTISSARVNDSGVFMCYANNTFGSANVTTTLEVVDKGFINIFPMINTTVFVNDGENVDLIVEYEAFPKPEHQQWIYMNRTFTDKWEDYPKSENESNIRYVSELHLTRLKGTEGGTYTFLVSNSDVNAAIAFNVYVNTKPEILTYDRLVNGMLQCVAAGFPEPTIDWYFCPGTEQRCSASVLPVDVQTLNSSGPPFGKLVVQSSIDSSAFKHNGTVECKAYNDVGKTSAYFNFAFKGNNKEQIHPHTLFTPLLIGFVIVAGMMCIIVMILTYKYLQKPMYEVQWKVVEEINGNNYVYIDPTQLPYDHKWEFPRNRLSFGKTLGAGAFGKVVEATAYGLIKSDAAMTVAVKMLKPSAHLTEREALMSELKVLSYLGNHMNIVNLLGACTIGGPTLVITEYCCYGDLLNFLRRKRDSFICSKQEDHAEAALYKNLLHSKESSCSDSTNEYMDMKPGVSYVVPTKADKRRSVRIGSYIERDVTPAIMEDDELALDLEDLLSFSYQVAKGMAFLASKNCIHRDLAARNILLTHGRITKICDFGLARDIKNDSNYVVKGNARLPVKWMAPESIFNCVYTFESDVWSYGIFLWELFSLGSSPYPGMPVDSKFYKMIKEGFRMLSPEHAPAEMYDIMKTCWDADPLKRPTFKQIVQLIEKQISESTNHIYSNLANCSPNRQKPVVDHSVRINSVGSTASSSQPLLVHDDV
T3 sequence (Q16539 whole entry): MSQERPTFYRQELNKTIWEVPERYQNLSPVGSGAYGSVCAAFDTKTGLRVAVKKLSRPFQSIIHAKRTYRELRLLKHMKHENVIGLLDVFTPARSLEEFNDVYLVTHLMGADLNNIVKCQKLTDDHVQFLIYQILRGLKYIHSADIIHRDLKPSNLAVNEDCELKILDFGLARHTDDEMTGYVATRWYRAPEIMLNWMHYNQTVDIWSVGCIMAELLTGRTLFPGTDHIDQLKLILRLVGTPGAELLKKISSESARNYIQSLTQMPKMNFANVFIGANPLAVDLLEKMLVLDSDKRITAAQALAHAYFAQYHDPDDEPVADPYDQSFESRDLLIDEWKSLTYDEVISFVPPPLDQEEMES
ACVR1B, sequence (P36896 whole entry): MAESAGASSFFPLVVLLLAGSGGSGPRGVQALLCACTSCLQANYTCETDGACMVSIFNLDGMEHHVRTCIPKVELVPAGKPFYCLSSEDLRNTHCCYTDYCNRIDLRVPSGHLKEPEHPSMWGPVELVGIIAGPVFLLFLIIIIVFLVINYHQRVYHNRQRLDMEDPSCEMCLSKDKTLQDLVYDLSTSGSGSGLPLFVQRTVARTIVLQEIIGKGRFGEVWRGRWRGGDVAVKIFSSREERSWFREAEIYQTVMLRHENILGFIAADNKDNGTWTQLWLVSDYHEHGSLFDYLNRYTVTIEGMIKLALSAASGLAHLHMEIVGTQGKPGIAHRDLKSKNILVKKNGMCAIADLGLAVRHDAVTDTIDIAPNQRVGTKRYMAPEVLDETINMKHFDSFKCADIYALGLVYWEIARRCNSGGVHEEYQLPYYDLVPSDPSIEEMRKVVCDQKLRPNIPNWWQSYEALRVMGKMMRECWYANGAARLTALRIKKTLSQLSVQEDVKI
FGR, sequence (P09769 whole entry): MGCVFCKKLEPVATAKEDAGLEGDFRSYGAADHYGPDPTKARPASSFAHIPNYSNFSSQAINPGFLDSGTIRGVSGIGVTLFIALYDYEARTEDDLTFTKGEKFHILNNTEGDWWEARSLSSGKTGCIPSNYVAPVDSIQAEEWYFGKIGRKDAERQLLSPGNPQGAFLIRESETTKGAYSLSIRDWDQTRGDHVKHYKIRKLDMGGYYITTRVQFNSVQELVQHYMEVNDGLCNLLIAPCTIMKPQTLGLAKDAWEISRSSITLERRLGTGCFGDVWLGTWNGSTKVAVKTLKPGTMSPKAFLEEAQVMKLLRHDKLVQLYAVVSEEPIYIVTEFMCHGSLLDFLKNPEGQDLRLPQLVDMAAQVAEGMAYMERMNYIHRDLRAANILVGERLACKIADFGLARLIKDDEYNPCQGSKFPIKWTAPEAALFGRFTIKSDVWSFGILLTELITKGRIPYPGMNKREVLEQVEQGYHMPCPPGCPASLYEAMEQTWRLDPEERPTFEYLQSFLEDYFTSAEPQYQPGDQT
CSNK1A1L, sequence (Q8N752 whole entry): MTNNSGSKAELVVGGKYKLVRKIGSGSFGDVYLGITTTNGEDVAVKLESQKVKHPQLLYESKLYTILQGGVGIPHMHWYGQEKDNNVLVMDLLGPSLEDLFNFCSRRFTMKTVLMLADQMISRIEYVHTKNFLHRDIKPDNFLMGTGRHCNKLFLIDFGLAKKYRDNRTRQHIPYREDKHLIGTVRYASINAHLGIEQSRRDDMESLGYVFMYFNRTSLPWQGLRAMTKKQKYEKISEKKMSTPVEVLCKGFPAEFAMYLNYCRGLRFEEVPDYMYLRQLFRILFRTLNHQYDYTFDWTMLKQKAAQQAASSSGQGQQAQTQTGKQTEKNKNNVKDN
CSNK1G2, sequence (P78368 whole entry): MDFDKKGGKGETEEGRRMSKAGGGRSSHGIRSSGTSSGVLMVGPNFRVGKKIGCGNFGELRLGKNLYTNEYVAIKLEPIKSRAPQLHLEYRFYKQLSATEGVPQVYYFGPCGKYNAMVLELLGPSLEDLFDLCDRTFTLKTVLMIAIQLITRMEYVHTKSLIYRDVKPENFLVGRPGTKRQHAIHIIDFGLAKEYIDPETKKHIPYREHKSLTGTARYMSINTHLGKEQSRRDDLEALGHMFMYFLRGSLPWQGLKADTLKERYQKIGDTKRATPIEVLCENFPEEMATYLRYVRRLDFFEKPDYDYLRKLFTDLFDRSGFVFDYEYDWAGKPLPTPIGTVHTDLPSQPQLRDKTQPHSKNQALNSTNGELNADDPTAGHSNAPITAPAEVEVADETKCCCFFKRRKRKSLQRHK
MET(Y1235D), sequence (P08581 whole entry Y1235D): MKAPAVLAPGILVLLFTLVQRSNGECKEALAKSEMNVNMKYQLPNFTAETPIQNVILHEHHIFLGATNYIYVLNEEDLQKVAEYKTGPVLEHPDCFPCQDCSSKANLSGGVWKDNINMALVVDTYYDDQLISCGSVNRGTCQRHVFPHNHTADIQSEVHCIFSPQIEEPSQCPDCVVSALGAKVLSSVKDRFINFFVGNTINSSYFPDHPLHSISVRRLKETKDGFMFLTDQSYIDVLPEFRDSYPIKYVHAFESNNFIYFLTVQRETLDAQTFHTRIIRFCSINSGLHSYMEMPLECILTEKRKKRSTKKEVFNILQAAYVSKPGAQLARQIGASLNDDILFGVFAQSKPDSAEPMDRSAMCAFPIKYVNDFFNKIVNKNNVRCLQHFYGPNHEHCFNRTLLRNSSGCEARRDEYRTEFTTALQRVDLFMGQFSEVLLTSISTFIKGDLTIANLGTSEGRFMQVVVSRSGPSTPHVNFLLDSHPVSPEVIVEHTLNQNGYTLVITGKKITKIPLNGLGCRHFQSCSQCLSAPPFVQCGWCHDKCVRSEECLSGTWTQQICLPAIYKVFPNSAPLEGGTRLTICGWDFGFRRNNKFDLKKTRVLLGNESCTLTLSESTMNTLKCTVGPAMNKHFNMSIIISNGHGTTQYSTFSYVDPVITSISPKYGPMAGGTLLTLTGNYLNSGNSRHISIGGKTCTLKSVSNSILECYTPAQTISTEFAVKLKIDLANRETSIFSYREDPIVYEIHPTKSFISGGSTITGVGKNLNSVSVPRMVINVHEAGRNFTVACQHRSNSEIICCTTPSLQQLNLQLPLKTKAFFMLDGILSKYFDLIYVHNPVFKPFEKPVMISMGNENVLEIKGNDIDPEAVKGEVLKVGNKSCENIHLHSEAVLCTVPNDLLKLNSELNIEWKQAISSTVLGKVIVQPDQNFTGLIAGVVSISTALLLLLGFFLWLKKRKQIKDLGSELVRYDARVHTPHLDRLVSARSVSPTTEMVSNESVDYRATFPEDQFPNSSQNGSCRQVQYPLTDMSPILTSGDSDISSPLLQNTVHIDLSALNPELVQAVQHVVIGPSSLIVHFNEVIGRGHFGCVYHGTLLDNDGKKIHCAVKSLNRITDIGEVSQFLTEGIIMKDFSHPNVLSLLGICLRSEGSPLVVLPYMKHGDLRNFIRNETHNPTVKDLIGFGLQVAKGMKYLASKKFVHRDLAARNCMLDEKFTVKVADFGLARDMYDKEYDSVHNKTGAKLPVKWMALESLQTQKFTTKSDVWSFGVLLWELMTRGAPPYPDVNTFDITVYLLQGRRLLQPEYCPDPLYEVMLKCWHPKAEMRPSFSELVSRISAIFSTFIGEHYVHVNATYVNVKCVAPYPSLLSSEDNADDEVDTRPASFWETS

- remaining binding at 100 µM (ACVR1B): 98%
- remaining binding at 100 µM (CSNK1A1L): 85%
- remaining binding at 100 µM (CSNK1G2): 87%
- remaining binding at 100 µM (EPHB6): 51%
- remaining binding at 100 µM (FGFR3): 75%
- remaining binding at 100 µM (FGR): 57%
- remaining binding at 100 µM (FLT3(D835H)): 92%
- remaining binding at 100 µM (GRK7): 75%
- remaining binding at 100 µM (HUNK): 63%
- remaining binding at 100 µM (KIT): 82%
- remaining binding at 100 µM (LRRK2): 100%
- remaining binding at 100 µM (MET(Y1235D)): 87%
- remaining binding at 100 µM (MLK2): 83%
- remaining binding at 100 µM (SGK2): 68%
- remaining binding at 100 µM (TIE2): 84%
- remaining binding at 100 µM (TLK2): 94%
- remaining binding at 100 µM (ULK2): 75%
- remaining binding at 100 µM (WEE1): 81%
- remaining binding at 100 µM (WNK3): 100%
- remaining binding at 100 µM (p38-alpha): 100%
- remaining binding at 100 µM (p38-beta): 98%
Compound: C=C(C)[C@H]1CC=C(C)C(=O)C1 [S-carvone]
- remaining binding at 100 µM (NEK9): 80%

Reference: paper PMC10174618, “Monoterpenoid aryl hydrocarbon receptor allosteric antagonists protect against ultraviolet skin damage in female mice” (Nature Communications, 2023)
